In PubChem BioAssay (NCI):
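A five-concentration, 48-hour dose response in 96-well plates underlies each endpoint, interpolated linearly between surrounding concentrations. TGI denotes the concentration required for complete inhibition of growth.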

Columns and labels:
Assay in all cases: NCI tumour cell line growth inhibition, 48 h
[1] = tested on: MDA-MB-231 breast
[2] = tested on: PC-3 prostate
[3] = tested on: T-47D breast
[4] = tested on: OVCAR-8 ovarian
[5] = tested on: OVCAR-4 ovarian
[6] = tested on: CCRF-CEM leukemia
[7] = tested on: MOLT-4 leukemia
[8] = tested on: HCT-15 colon
[9] = tested on: HCC-2998 colon
[10] = tested on: NCI-H226 lung
[11] = tested on: NCI/ADR-RES ovarian
[12] = tested on: MDA-N
[13] = tested on: HOP-62 NSCLC
[14] = tested on: SNB-19 CNS
[15] = tested on: UACC-257 melanoma
[16] = tested on: 786-0 renal
[17] = tested on: SK-MEL-28 melanoma
[18] = tested on: COLO 205 colon
[19] = tested on: SK-MEL-5 melanoma
[20] = tested on: MALME-3M melanoma
[21] = tested on: K-562 leukemia
[22] = tested on: HL-60(TB) leukemia
[23] = tested on: MDA-MB-435
[24] = tested on: NCI-H23 lung
[25] = tested on: SN12C renal
[26] = tested on: ACHN renal
[27] = tested on: A498 renal
[28] = tested on: LOX IMVI melanoma
[29] = tested on: M14 melanoma
[30] = tested on: UACC-62 melanoma
[31] = tested on: EKVX NSCLC
[32] = tested on: HOP-92 NSCLC
[33] = tested on: OVCAR-5 ovarian
[34] = tested on: MCF7 breast
[35] = tested on: SK-OV-3 ovarian
[36] = tested on: SW-620 colon
[37] = tested on: SF-295 CNS
[38] = tested on: DU-145 prostate
[39] = tested on: TK-10 renal
[40] = tested on: U251 CNS
[41] = tested on: SF-268 CNS
[42] = tested on: SR leukemia
[43] = tested on: RXF 393 renal
[44] = tested on: IGROV1 ovarian
[45] = tested on: A549 NSCLC
[46] = tested on: KM12 colon
[47] = tested on: SF-539 CNS
[48] = tested on: SK-MEL-2 melanoma
[49] = tested on: NCI-H460 lung
[50] = tested on: NCI-H522 lung
[51] = tested on: HCT-116 colon
[52] = tested on: OVCAR-3 ovarian
[53] = tested on: SNB-75 CNS
[54] = tested on: HT29 colon
[55] = tested on: CAKI-1 renal
[56] = tested on: RPMI-8226 leukemia
[57] = tested on: UO-31 renal

## COc1cccc2c1C(=O)c1c(O)c3c(c(O)c1C2=O)CC(O)(C(O)CO)CC3OC1CC2C(OC3COCC(C#N)N32)C(C)O1 (stereo unspecified)
[1]
  TGI: 0.0139 µM
[2]
  TGI: 0.0194 µM
[3]
  TGI: < 0.01 µM
[4]
  TGI: 1.71 µM
[5]
  TGI: < 0.01 µM
[6]
  TGI: < 0.01 µM
[7]
  TGI: < 0.01 µM
[8]
  TGI: 1.04 µM
[9]
  TGI: < 0.01 µM
[10]
  TGI: < 0.01 µM
[11]
  TGI: < 0.01 µM
[12]
  TGI: < 0.01 µM
[13]
  TGI: 0.0432 µM
[14]
  TGI: 0.0144 µM
[15]
  TGI: < 0.01 µM
[16]
  TGI: 0.0282 µM
[17]
  TGI: < 0.01 µM
[18]
  TGI: < 0.01 µM
[19]
  TGI: < 0.01 µM
[20]
  TGI: < 0.01 µM
[21]
  TGI: < 0.01 µM
[22]
  TGI: < 0.01 µM
[23]
  TGI: < 0.01 µM
[24]
  TGI: < 0.01 µM
[25]
  TGI: 1.47 µM
[26]
  TGI: 0.213 µM
[27]
  TGI: < 0.01 µM
[28]
  TGI: 0.0125 µM
[29]
  TGI: < 0.01 µM
[30]
  TGI: < 0.01 µM
[31]
  TGI: 0.0644 µM
[32]
  TGI: < 0.01 µM
[33]
  TGI: 4.31 µM
[34]
  TGI: 2.15 µM
[35]
  TGI: 0.0727 µM
[36]
  TGI: 13.5 µM
[37]
  TGI: > 100 µM
[38]
  TGI: 0.406 µM
[39]
  TGI: < 0.01 µM
[40]
  TGI: 0.13 µM
[41]
  TGI: 0.0324 µM
[42]
  TGI: > 100 µM
[43]
  TGI: < 0.01 µM
[44]
  TGI: < 0.01 µM
[45]
  TGI: > 100 µM

## O=c1oc2ccccc2c(O)c1/C=N/C(=S)Nc1ccccc1
[1]
  TGI: > 100 µM
[2]
  TGI: > 100 µM
[3]
  TGI: > 100 µM
[46]
  TGI: > 100 µM
[4]
  TGI: > 100 µM
[5]
  TGI: > 100 µM
[6]
  TGI: > 100 µM
[7]
  TGI: > 100 µM
[8]
  TGI: > 100 µM
[9]
  TGI: > 100 µM
[10]
  TGI: > 100 µM
[11]
  TGI: > 100 µM
[12]
  TGI: > 100 µM
[13]
  TGI: > 100 µM
[15]
  TGI: > 100 µM
[17]
  TGI: > 100 µM
[18]
  TGI: > 100 µM
[47]
  TGI: > 100 µM
[19]
  TGI: > 100 µM
[21]
  TGI: > 100 µM
[24]
  TGI: > 100 µM
[48]
  TGI: 94.7 µM
[25]
  TGI: > 100 µM
[49]
  TGI: > 100 µM
[26]
  TGI: > 100 µM
[50]
  TGI: > 100 µM
[27]
  TGI: > 100 µM
[28]
  TGI: > 100 µM
[29]
  TGI: > 100 µM
[30]
  TGI: > 100 µM
[31]
  TGI: > 100 µM
[33]
  TGI: > 100 µM
[37]
  TGI: > 100 µM
[38]
  TGI: > 100 µM
[51]
  TGI: > 100 µM
[41]
  TGI: > 100 µM
[52]
  TGI: > 100 µM
[43]
  TGI: 0.833 µM
[53]
  TGI: 97.8 µM
[45]
  TGI: > 100 µM

## N#CCCC1(CCC#N)CCc2ccccc2C1=O
[1]
  TGI: > 100 µM
[2]
  TGI: > 100 µM
[3]
  TGI: > 100 µM
[46]
  TGI: > 100 µM
[4]
  TGI: > 100 µM
[5]
  TGI: > 100 µM
[6]
  TGI: > 100 µM
[7]
  TGI: > 100 µM
[8]
  TGI: > 100 µM
[9]
  TGI: > 100 µM
[10]
  TGI: > 100 µM
[11]
  TGI: > 100 µM
[12]
  TGI: > 100 µM
[13]
  TGI: > 100 µM
[14]
  TGI: > 100 µM
[15]
  TGI: > 100 µM
[16]
  TGI: > 100 µM
[17]
  TGI: > 100 µM
[47]
  TGI: > 100 µM
[19]
  TGI: > 100 µM
[20]
  TGI: > 100 µM
[21]
  TGI: > 100 µM
[22]
  TGI: > 100 µM
[23]
  TGI: > 100 µM
[24]
  TGI: > 100 µM
[48]
  TGI: > 100 µM
[25]
  TGI: > 100 µM
[49]
  TGI: > 100 µM
[26]
  TGI: > 100 µM
[50]
  TGI: > 100 µM
[28]
  TGI: > 100 µM
[54]
  TGI: > 100 µM
[29]
  TGI: > 100 µM
[30]
  TGI: > 100 µM
[31]
  TGI: > 100 µM
[33]
  TGI: > 100 µM
[34]
  TGI: > 100 µM
[35]
  TGI: > 100 µM
[36]
  TGI: > 100 µM
[38]
  TGI: > 100 µM
[51]
  TGI: > 100 µM
[39]
  TGI: > 100 µM
[40]
  TGI: > 100 µM
[41]
  TGI: > 100 µM
[42]
  TGI: > 100 µM
[55]
  TGI: > 100 µM
[52]
  TGI: > 100 µM
[56]
  TGI: > 100 µM
[53]
  TGI: > 100 µM
[44]
  TGI: > 100 µM
[57]
  TGI: > 100 µM
